“Also recorded” adds a separate entry of the source.

Assay [1] concerns CD4+ human T cells. Briefly: cytokine secretion in anti-CD3/CD28 stimulated CD4+ T cells in vitro. The class given is cell-based. The note with it: anti-CD3/CD28 stimulation.
Assay [2] relates to human CD4+ T cells. The assay can be described thus: Foxp3 expression in CD4+ T cells after Th17 skewing activation. The note with it: 5 days of Th17 skewing activation. The class given is cell-based.
For assay [3], the system named is CD4+ human T cells. Briefly: proliferation of T cells in response to TCR stimulation in vitro. The settings on record: listed as KD025. The class given is cell-based.
Assay [4] deals with TGF-β-induced STAT3, MLC and SMAD2/3 phosphorylation. The assay can be described thus: TGF-β-induced phosphorylation of STAT3, MLC and SMAD2/3 in Tregs.
Assay [5] concerns PBMCs. Briefly: ex vivo anti-CD3/CD28 stimulation of cytokine production in PBMCs isolated from treated patients. The settings on record: 120 mg/day on days 1 and 8-14. Set-up: species or system human.
In assay [6] the test system is STAT3 phosphorylation. Briefly: STAT3 phosphorylation in T cells. The assay is classed as cell-based, human.
Assay [7] concerns CD4+ T cells from RA patients. Briefly: cytokine secretion ex vivo in CD3/CD28 stimulated CD4+ T cells from RA patients. The assay is classed as cell-based, human.
In assay [8] the test system is CD4+CD25+ human Tregs. The assay can be described thus: Treg suppression of IL-17 secretion in CD4+CD25- effector T cells. The class given is cell-based. The note with it: Tregs treated 3 hours; Treg:Teff 1:4 and 1:9.
The mark [9] stands for this setting: CD4+ T cells from RA patients, ex vivo, listed as KD025.

Consider `CC(C)NC(=O)COc1cccc(-c2nc(Nc3ccc4[nH]ncc4c3)c3ccccc3n2)c1` [SLx-2119], for which, in assay [1], the IFN-γ secretion result was “less robust and significant only at high dose (10 μM)”; the IL-2 secretion result was “observed only at the highest concentration (10 μM)”. Also, in assay [1] (listed as KD025), the IL-17 secretion result was “inhibits; also recorded: significantly inhibited” and the IL-21 secretion result is given as “inhibits; also recorded: significantly inhibited”. In assay [2], the “percentage of Foxp3+ cells” value is “significantly increased”. For the same molecule, in assay [3], the “proliferation in response to TCR stimulation” value is reported as “inhibits; also recorded: down-regulated their ability to proliferate”. The “phosphorylation of SMAD2/3” value in assay [4] was “remains intact”. Moreover, in assay [4] (dose-dependent), the “TGF-β-induced MLC phosphorylation” value is “down-regulates” and the “TGF-β-induced STAT3 phosphorylation” value was “down-regulates”. In assay [5], the “IFN-γ in PBMCs” value is on record as “No effect”, the “induction of IL-17 secretion in PBMCs” value was “significantly inhibited in PBMCs isolated from four of five patients” and the “induction of IL-21 secretion in PBMCs” value is given as “significantly inhibited in PBMCs from all five patients”. Besides, in assay [6] (Th17-skewing conditions 5 days, then treatment 3 hours), the STAT3 phosphorylation result was “STAT3 phosphorylation was reduced”. Also, the “phosphorylation of STAT3, IRF4 and RORγt” value in assay [6] (anti-CD3/CD28, TGF-β and IL-1β, 48 hours (FIG. 9C)) is “reduced phosphorylation of STAT3, as well as IFR4 and RORγT, was confirmed”. For the same molecule, the “phosphorylation of STAT3” value in assay [6] (pre-treatment, then anti-CD3/CD28 stimulation) was “reduced phosphorylation of STAT3”. Besides, in assay [7] (2 RA patients, intracellular staining), the “frequencies of IL-17 and IFN-γ-producing cells” value is listed as “significantly reduced the frequencies”. In addition, in assay [7] (setting [9]), the IFN-γ secretion entry is given as “inhibits; also recorded: significantly down-regulated”, the IL-17 secretion result is recorded as “inhibits; also recorded: significantly down-regulated” and the IL-21 secretion entry is “inhibits; also recorded: significantly down-regulated”. Besides, the “ability of Tregs to suppress IL-17 secretion in CD4+CD25- effector T cells” value in assay [8] is listed as “significantly increased”.

These data come from patent US9815820B2, “Rho kinase inhibitors” (priority 2012, dated 2017).
